Experimental findings from patent publication US20080021026A1, “BENZOTHIOPHENE INHIBITORS OF RHO KINASE” (priority 2006, published 2008) are described below.

Where only a bound is given, the exact number is not on record here.

In general, IC50 refers to the concentration at which inhibition is half-maximal.

In the experiment the target is T1, recombinant N-terminal GST-tagged human Rho kinase 2 (ROCK2, amino acids 1-552) (Homo sapiens, UniProt O75116).
T1 construct: ROCK2, amino acids 1-552; purchased Invitrogen Inc. PV3759
T1 sequence (O75116 1-552): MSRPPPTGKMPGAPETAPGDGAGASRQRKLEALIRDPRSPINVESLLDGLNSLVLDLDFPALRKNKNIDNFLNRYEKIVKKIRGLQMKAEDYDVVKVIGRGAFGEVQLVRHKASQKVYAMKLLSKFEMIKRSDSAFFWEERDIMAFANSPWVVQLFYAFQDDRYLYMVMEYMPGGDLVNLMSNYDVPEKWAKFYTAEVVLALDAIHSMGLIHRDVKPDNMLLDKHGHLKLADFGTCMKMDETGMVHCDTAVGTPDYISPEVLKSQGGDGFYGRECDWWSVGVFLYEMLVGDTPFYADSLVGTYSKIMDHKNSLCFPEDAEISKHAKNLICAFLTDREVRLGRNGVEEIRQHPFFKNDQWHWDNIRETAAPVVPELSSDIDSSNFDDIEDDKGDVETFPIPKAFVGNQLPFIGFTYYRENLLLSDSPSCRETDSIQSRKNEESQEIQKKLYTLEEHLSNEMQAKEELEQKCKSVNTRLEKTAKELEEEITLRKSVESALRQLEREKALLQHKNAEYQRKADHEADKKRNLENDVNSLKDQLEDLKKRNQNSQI
Briefly: In vitro Rho kinase assay (luciferase-based ATP consumption), ROCK2. To be noted: recombinant GST-tagged human ROCK2, luciferase-based ATP consumption; read-out: ROCK2 IC50. In kind it is biochemical. The procedure, abridged: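 GST-ROCK2 (aa 1-552, 0.82 μg/ml) with 100 μg/ml S6 peptide and 3 µM ATP in Tris pH 7.5 buffer with MgCl2/CaCl2/EGTA/BSA, compound added just after reaction start, 2 h at 30 °C. Remaining ATP read by luciferase luminescence. Efficacy expressed as percentage of H-1152P positive control.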
With `Cc1c(-c2ccnc(N)n2)sc2ccc(C(=O)NCc3cccc(Cl)c3)cc12` [Example 408, Cc1c(sc2ccc(cc12)C(═O)NCc3cccc(Cl)c3)-c4ccnc(N)n4], the IC50 was less than 5 µM. `Cc1c(-c2ccnc(N)n2)sc2ccc(C(=O)NCc3ccc(F)cc3F)cc12` [Example 412, Cc1c(sc2ccc(cc12)C(═O)NCc3ccc(F)cc3F)-c4ccnc(N)n4]: the IC50 was less than 5 µM. As for `COc1ccc(N2CCN(C(=O)c3ccc4sc(-c5ccnc(N)n5)c(C)c4c3)CC2)cc1` [Example 540, COc1ccc(cc1)N2CCN(CC2)C(═O)c3ccc4sc(c(C)c4c3)-c5ccnc(N)n5], the figure is less than 5 µM.

As to `Cc1c(-c2ccnc(N)n2)sc2ccc(C(=O)N3CCCC3CO)cc12` (stereo not shown) [Example 475, Cc1c(sc2ccc(cc12)C(═O)N3CCCC3CO)-c4ccnc(N)n4], the IC50 is less than 5 µM. `Cc1c(-c2ccnc(N)n2)sc2ccc(C(=O)N3CCCCC3CO)cc12` (stereo not shown) [Example 489, Cc1c(sc2ccc(cc12)C(═O)N3CCCCC3CO)-c4ccnc(N)n4]: the IC50 is less than 5 µM. As for `Cc1c(-c2ccnc(N)n2)sc2ccc(C(=O)N[C@@H](C)c3ccccc3)cc12` [Example 376, C[C@H](NC(═O)c1ccc2sc(c(C)c2c1)-c3ccnc(N)n3)c4ccccc4], the figure is less than 5 µM; as for `Cc1c(-c2ccnc(N)n2)sc2ccc(C(=O)N3CCN(C(=O)OC(C)(C)C)CC3)cc12` [Example 530, Cc1c(sc2ccc(cc12)C(═O)N3CCN(CC3)C(═O)OC(C)(C)C)-c4ccnc(N)n4], greater than 5 µM; as for `Cc1c(-c2ccnc(N)n2)sc2ccc(C(=O)NCC3(O)CCCCC3)cc12` [Example 438, Cc1c(sc2ccc(cc12)C(═O)NCC3(O)CCCCC3)-c4ccnc(N)n4], less than 5 µM. As for `Cc1c(-c2ccnc(N)n2)sc2ccc(C(=O)NCCc3ccc(Cl)cc3)cc12` [Example 428, Cc1c(sc2ccc(cc12)C(═O)NCCc3ccc(Cl)cc3)-c4ccnc(N)n4], the figure is less than 5 µM. As for `Cc1c(-c2ccnc(N)n2)sc2ccc(C(=O)N3CCc4ccccc4C3)cc12` [Example 498, Cc1c(sc2ccc(cc12)C(═O)N3CCc4ccccc4C3)-c5ccnc(N)n5], the figure is less than 5 µM. Take `CCOC(=O)CC(C)NC(=O)c1ccc2sc(-c3ccnc(N)n3)c(C)c2c1` (stereo not shown) [Example 390, CCOC(═O)CC(C)NC(═O)c1ccc2sc(c(C)c2c1)-c3ccnc(N)n3]: the IC50 was less than 5 µM. As for `Cc1c(-c2ccnc(N)n2)sc2ccc(C(=O)NC3CCN(Cc4ccccc4)CC3)cc12` [Example 452, Cc1c(sc2ccc(cc12)C(═O)NC3CCN(CC3)Cc4ccccc4)-c5ccnc(N)n5], the figure is less than 5 µM; as for `Cc1c(-c2ccnc(N)n2)sc2ccc(C(=O)NC3CC(C)(C)NC(C)(C)C3)cc12` [Example 430, Cc1c(sc2ccc(cc12)C(═O)NC3CC(C)(C)NC(C)(C)C3)-c4ccnc(N)n4], less than 5 µM. As for `Cc1c(-c2ccnc(N)n2)sc2ccc(C(=O)N3C(C)CCCC3C)cc12` (stereo not shown) [Example 483, CC1CCCC(C)N1C(═O)c2ccc3sc(c(C)c3c2)-c4ccnc(N)n4], the figure is greater than 5 µM; as for `Cc1c(-c2ccnc(N)n2)sc2ccc(C(=O)N3CCN(c4ccccc4F)CC3)cc12` [Example 525, Cc1c(sc2ccc(cc12)C(═O)N3CCN(CC3)c4ccccc4F)-c5ccnc(N)n5], greater than 5 µM; as for `Cc1c(-c2ccnc(N)n2)sc2ccc(C(=O)NCCC3CCCN3C)cc12` (stereo not shown) [Example 386, CN1CCCC1CCNC(═O)c2ccc3sc(c(C)c3c2)-c4ccnc(N)n4], less than 5 µM. As for `Cc1c(-c2ccnc(N)n2)sc2ccc(C(=O)NCCN(C(C)C)C(C)C)cc12` [Example 416, CC(C)N(CCNC(═O)c1ccc2sc(c(C)c2c1)-c3ccnc(N)n3)C(C)C], the figure is less than 5 µM; as for `Cc1c(-c2ccnc(N)n2)sc2ccc(C(=O)N3CCOCC3)cc12` [Example 466, Cc1c(sc2ccc(cc12)C(═O)N3CCOCC3)-c4ccnc(N)n4], less than 5 µM; as for `Cc1c(-c2ccnc(N)n2)sc2ccc(C(=O)N3CCCN(Cc4ccccc4)CC3)cc12` [Example 522, Cc1c(sc2ccc(cc12)C(═O)N3CCCN(CC3)Cc4ccccc4)-c5ccnc(N)n5], less than 5 µM.
